From PMC3574584 (Journal of medicinal chemistry, 2013)

How the values were obtained:
mPTPB = target: T1, mPTPB (Mycobacterium tuberculosis, UniProt I6WXK4); type: biochemical
T1 sequence (I6WXK4 1-276): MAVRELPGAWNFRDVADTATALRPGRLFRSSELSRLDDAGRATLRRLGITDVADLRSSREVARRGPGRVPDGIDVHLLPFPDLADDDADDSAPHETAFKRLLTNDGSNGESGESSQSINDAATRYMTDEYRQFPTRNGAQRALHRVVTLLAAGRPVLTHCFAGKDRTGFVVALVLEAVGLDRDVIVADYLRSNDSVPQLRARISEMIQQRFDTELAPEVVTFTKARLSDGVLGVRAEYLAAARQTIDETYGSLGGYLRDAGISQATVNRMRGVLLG

TC-PTP = target: T2, TC-PTP (Homo sapiens, UniProt P17706); assay: PTP selectivity pNPP assay, TC-PTP; type: biochemical, mammalian
T2 sequence (P17706 1-415): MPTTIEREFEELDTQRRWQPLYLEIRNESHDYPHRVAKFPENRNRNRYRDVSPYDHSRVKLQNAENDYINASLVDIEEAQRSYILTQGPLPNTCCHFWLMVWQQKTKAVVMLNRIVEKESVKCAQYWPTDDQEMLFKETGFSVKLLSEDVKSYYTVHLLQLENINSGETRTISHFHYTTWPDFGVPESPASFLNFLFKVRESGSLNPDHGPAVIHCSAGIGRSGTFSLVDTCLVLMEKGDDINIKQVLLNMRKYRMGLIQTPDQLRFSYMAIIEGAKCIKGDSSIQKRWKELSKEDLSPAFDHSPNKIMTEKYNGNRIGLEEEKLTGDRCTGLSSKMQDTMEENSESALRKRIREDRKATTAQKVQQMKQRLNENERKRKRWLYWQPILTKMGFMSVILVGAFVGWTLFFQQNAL

O=C(O)c1cc2c(C#Cc3cc(F)cc(F)c3)c(-c3ccccc3)oc2cc1O [Compound 4f, 3-((3,5-difluorophenyl)ethynyl)-6-hydroxy-2-phenylbenzofuran-5-carboxylic acid]
decrease in IC50 for mPTPB compared to 4b (mPTPB): 3.3 fold

O=C(O)c1cc2c(C#Cc3cccc(C(F)(F)F)c3)c(-c3ccccc3)oc2cc1O [Compound 4g, 6-hydroxy-2-phenyl-3-((3-(trifluoromethyl)phenyl)ethynyl)benzofuran-5-carboxylic acid]
mode of mPTPB inhibition (mPTPB): reversible and noncompetitive

O=C(O)c1cc2c(C#Cc3ccc(F)cc3F)c(-c3ccccc3)oc2cc1O [Compound 4e, 3-((2,4-difluorophenyl)ethynyl)-6-hydroxy-2-phenylbenzofuran-5-carboxylic acid]
IC50 (TC-PTP): 9 ± 0.5 µM
